From the METLIN SMRT retention time set (Domingo-Almenara et al. 2019)

Assay: gradient 5% acetonitrile 3 min, to 50% in 2 min, to 85% in 15 min, held 3 min, 100 µL/min
Settings: column: Zorbax Extend-C18 2.1 x 50 mm; eluents: water / acetonitrile, 0.1% formic acid
Summary of the method: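 Values are retention times taken from adduct peaks that software picked and an analyst inspected. The pure standards were run as mixtures of ~100 molecules on HPLC linked to a quadrupole time-of-flight mass spectrometer, in positive and negative ionization mode. A Zorbax Extend-C18 column (2.1 × 50 mm, 1.8 μm) was used at 100 μL/min with water and acetonitrile, each including 0.1% formic acid.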

Row | Compound | RP-LC retention time
1 | CCC(CC)C(=O)N1C[C@H](c2nc(-c3ccncc3)no2)[C@@H](C)C1 | 793 s
2 | COc1cc(OC)cc(C(=O)N2CCN(c3cc(-c4cccnc4)[nH]n3)CC2)c1 | 570 s
3 | COc1ccc(-c2csc(C)n2)cc1S(=O)(=O)N1CCc2ccccc2C1 | 970 s
4 | CC1=C(C(=O)NCc2ccc3c(c2)OCO3)C2(CCN(Cc3ccccc3)CC2)OC1=O | 669 s
5 | CCn1c(=O)c(NCc2ccc(C(C)C)cc2)nc2ccncc21 | 720 s
6 | C[C@@H](CN1CCC(Cc2ccccc2)CC1)[C@@H](O)c1ccc(O)cc1 | 737 s
7 | CC(C)NC(=O)N1CCCC(c2cccc(C(=O)NCCCN3CCOCC3)c2)C1 (stereo unspecified) | 598 s
8 | O=C1CC(C(F)(F)F)c2c(c(C(=O)O)cn2-c2cccc(F)c2)N1 (stereo unspecified) | 747 s
9 | CCNC(=O)N1CCCC(Cc2nncn2C(C)C)C1 (stereo unspecified) | 494 s
10 | Cc1cc(C(=O)Nc2nnc(-c3cccs3)o2)c(C)o1 | 706 s
11 | Cc1nc2cccnc2n1-c1ccc(C(=O)NCCCN2CCCC2=O)cc1 | 580 s
12 | C=CCn1ccc2c(OCC(=O)NC3CCCC3)cccc2c1=O | 788 s
13 | COc1ccc(/C=C/c2nc(-c3ccc4oc(C)nc4c3)no2)cc1OC | 995 s
14 | CC1CCN(S(=O)(=O)c2nn(C)cc2C(=O)NCCc2cccs2)CC1 | 952 s
15 | Cc1nc(-c2csc(S(=O)(=O)N3CCC(C(=O)Nc4ccccc4)CC3)c2)no1 | 878 s
16 | Cc1ccc2c(c1)C1CC(C)(O2)N(c2cccc(C(=O)NCc3ccco3)c2)C(=O)N1 (stereo unspecified) | 801 s
17 | COc1ccc(CCNC(=O)Cc2csc3nc(-c4ccc(OC)c(OC)c4)cn23)cc1OC | 661 s
18 | CCc1nc(-c2csc(S(=O)(=O)N3CCCC(C(=O)Nc4cc(C)cc(C)c4)C3)c2)no1 (stereo unspecified) | 1090 s
19 | O=c1n(Cc2ccccc2)nc2n1CCN(S(=O)(=O)c1cnc[nH]1)CC2 | 646 s
20 | Cc1cccc(S(=O)(=O)N2CCC(c3cc(=O)n4nccc4n3C)CC2)c1 | 718 s
21 | CCCS(=O)(=O)N1CCC(Cc2nncn2-c2ccccc2)CC1 | 713 s
22 | CC(C)C(=O)N1CCc2c(c(-c3nncn3C(C)C)nn2C)C1 | 639 s
23 | Cc1ccccc1-c1nc(-c2ccc3c(c2)oc(=O)n3C(C)C)no1 | 1270 s

Row | Compound | RP-LC retention time
24 | Cc1cc(N2CCC(NC(=O)Nc3cccc(F)c3C)C2=O)ccc1F (stereo unspecified) | 904 s
25 | CCC(=O)Nc1ccc2c(c1)CN(C(=O)c1c(F)cccc1F)C(C(=O)N1CCCC1)C2 (stereo unspecified) | 700 s
26 | Cc1nc(-c2cc(S(=O)(=O)NCCCN3CCC(C)CC3)c(C)s2)sc1C | 699 s
27 | CCc1noc(NC(C)=O)c1-c1ccc(C)c(S(=O)(=O)Nc2ccc(C)c(F)c2)c1 | 856 s
28 | COc1ccc(-c2nnc(-c3cc(S(=O)(=O)N4CCN(C)CC4)ccc3Cl)o2)cc1 | 682 s
29 | CCCNC(=O)COc1ccc(NC(=O)C2CC2)cn1 | 643 s
30 | Cc1noc(C)c1CCNC(=O)C(C)n1c2ccccc2c2cnn(C)c(=O)c21 (stereo unspecified) | 741 s
31 | O=C(Cn1ccn2nc(-c3ccccc3)c(CO)c2c1=O)Nc1ccc(Cl)cc1F | 869 s
32 | COc1ccc(C(=O)COc2ccccc2OC)cc1 | 825 s
33 | CC(=O)Nc1nc(-c2ccc3c(c2)N(C)C(=O)CO3)c(C)s1 | 726 s
34 | CCc1ccccc1NC(=O)Cn1c(=O)c(CCC(=O)NCC(C)C)nc2ccccc21 | 854 s
35 | COc1cc(-c2nc3ncccn3c2Nc2cccc(C(F)(F)F)c2)ccc1O | 700 s
36 | CCCOc1nccnc1N1CCC(NC(=O)c2ccoc2)C1 (stereo unspecified) | 585 s
37 | Cn1ncc(N2CCC(C(=O)N3CCN(C(=O)C4COc5ccccc5O4)CC3)CC2)cc1=O (stereo unspecified) | 659 s
38 | CC(C)Cn1cc(S(=O)(=O)Nc2cccc(F)c2)c2cccnc21 | 912 s
39 | COc1ccc(Cl)cc1NC(=O)NCC(c1cccnc1)c1cn(C)c2ccccc12 (stereo unspecified) | 785 s
40 | CC1=C(C(=O)N2CC(c3noc(COc4ccc(C)cc4)n3)C2)C2(CCCCC2)OC1=O | 1010 s
41 | CCOC(=O)C1=C(CN2CCN(c3ccccn3)CC2)NC(=O)NC1c1ccc(F)cc1 (stereo unspecified) | 625 s
42 | Cc1ccc(-c2nc(C)cc(SCC(=O)Nc3cc(C)ccc3C)n2)cc1 | 1210 s
43 | Cc1ccc(CN2C[C@@H](CO)[C@H](c3ccccn3)C2)nc1 | 559 s
44 | COc1ccc(-c2cnc(S(=O)(=O)CC(=O)NCc3ccccc3Cl)n2C)cc1 | 819 s
45 | CSc1ccc(Nc2ncccc2S(=O)(=O)Nc2ccc(F)cc2)cc1 | 1100 s
46 | COc1ccc2[nH]cc(CCNC(=O)CCC3CCCCC3)c2c1 | 874 s

Row | Compound | RP-LC retention time
47 | CCOC(=O)c1sc(NC(=O)CSc2nc3ccccc3[nH]2)nc1C | 810 s
48 | COC(=O)c1c(C)c(C(=O)C(C)N(C(=O)c2ccccc2Cl)C2CCCCC2)c(C)n1C (stereo unspecified) | 1160 s
49 | Cc1ccc(-c2noc(CN3N=NC4C(=O)N(c5ccc(C)c(Cl)c5)C(=O)C43)n2)cc1 (stereo unspecified) | 1100 s
50 | CCOc1ccc(-n2ccn3cc(-c4ccc(C)cc4)nc3c2=O)cc1 | 879 s
51 | Cc1nc(CC(=O)Nc2nc(-c3ccc(Cl)cc3)c(C)s2)cs1 | 983 s
52 | Cc1ccc(NC(=O)Cn2nc(N3CCCC(C)C3)c3ccccc3c2=O)c(F)c1 (stereo unspecified) | 1110 s
53 | CC(C)(C)C(O)CCNC(=O)NCc1ccc(Cl)cc1 (stereo unspecified) | 739 s
54 | CCOC(=O)C1CCc2sc(NC(=O)c3n[nH]c4ccccc34)nc21 (stereo unspecified) | 852 s
55 | O=C(NCCCn1ncccc1=O)c1ccc(S(=O)(=O)N2CCCC2)cc1 | 621 s
56 | CCOc1ccc(-c2cc(=O)n(CCCC(=O)Nc3ccc4sc(C)nc4c3)cn2)cc1 | 721 s
57 | CCCN1CCN(Cc2nc(-c3ccc(N4CCSCC4)nc3)no2)CC1 | 615 s
58 | CCOc1nc2ccccc2nc1N1CCCC(C(=O)NC2CCCCCC2)C1 (stereo unspecified) | 1250 s
59 | Cc1cc(N2CCOCC2)n2nc(CN3CCc4ccccc4C3)nc2n1 | 590 s
60 | CCOc1ccc(-c2[nH]ncc2CNS(=O)(=O)c2ccccc2CC)cc1 | 884 s
61 | Cc1nc(CC(=O)Nc2nc(-c3cccc(Cl)c3)c(C)s2)cs1 | 994 s
62 | O=S(=O)(c1ccc(C2CCCCC2)cc1)N1CCOCC1 | 1050 s
63 | Cc1cc2c(N3CCCC(C(=O)NCc4ccccc4Br)C3)nccc2s1 (stereo unspecified) | 714 s
64 | CCOC(=O)CCC(=O)NCC1CN(c2ccc(Cl)c(Cl)c2)C(=O)O1 (stereo unspecified) | 774 s
65 | CCOc1ccc(C(=O)Nc2cccn3nc(C(C)C)nc23)cc1 | 964 s
66 | COc1ccc(S(=O)(=O)N2CC3CN(C(=O)c4cc(C)oc4C)CC(C2)O3)cc1 | 785 s
67 | O=C(NCCCS(=O)(=O)N1CCN(c2ncccn2)CC1)C1CC1 | 608 s
68 | Cc1ccc(NC(=O)NCCc2cn(CC(C)C)c3ncccc23)cc1C | 858 s
69 | COCCNC(=O)C(=O)NCC1(c2ccc(F)cc2)CCOCC1 | 676 s

Row | Compound | RP-LC retention time
70 | O=C(Nc1ccc2nncn2c1)Nc1cc(F)ccc1F | 726 s
71 | COc1ccc2nc(NC3=NCN(CCc4cccs4)CN3)nc(C)c2c1 | 743 s
72 | CCN(Cc1ccccc1)C(=O)c1c(C)sc2ccn(CC)c(=O)c12 | 754 s
73 | CC(C)Cn1c(=O)c(N2CCN(S(=O)(=O)c3cccc(F)c3)CC2)nc2ccncc21 | 636 s
74 | CN(C)CCNCc1ccc(-c2cccc(Cl)c2)o1 | 570 s
75 | O=C(NC1CCCCC1)c1ccc(-n2cccn2)nc1 | 815 s
76 | COc1cccc(-c2csc(Cc3nc(-c4cccs4)no3)n2)c1 | 1020 s
77 | COCc1nncn1C1CN(C(=O)Cc2cc(OC)cc(OC)c2)C1 | 620 s
78 | Cc1ccc(-c2nnc(-c3ccc(Cl)c(S(=O)(=O)N4CCCCC4)c3)o2)cc1 | 1250 s
79 | COCC(=O)NC1CCC12CCN(S(=O)(=O)c1cn(C)cn1)CC2 (stereo unspecified) | 623 s
80 | COc1ccc(-n2ccn3cc(-c4ccc(Br)cc4)nc3c2=O)cc1 | 891 s
81 | Cc1nnc(-c2ccc3ccn(CC(=O)N4CCC5(CC4)OCCO5)c3c2)o1 | 673 s
82 | O=C(NCCS(=O)(=O)N1CCc2ccccc2C1)C1CC(=O)N(c2ccc(F)cc2)C1 (stereo unspecified) | 732 s
83 | CCn1nc(C(=O)NCCn2nc(C)cc2C)ccc1=O | 578 s
84 | CCOc1nc(OCC)c2cnn(C)c2n1 | 901 s
85 | COc1ccc(C2(C(=O)N3CCc4nn(CC5CC5)c(=O)n4CC3)CC2)cc1 | 709 s
86 | O=C(CN1CCCC(COCc2ccccc2)C1)NCc1ccc2c(c1)OCO2 (stereo unspecified) | 592 s
87 | COc1cccc(-n2cc(C(=O)OCc3cccnc3)c3ccccc3c2=O)c1 | 754 s
88 | COc1ccc(-c2cc(C)no2)cc1S(=O)(=O)N1CCN(c2ccccn2)CC1 | 651 s
89 | Cc1ccc(CNC(=O)C2(C)CN(S(=O)(=O)c3ccccc3)CC(=O)N2CCC(C)C)cc1 (stereo unspecified) | 1030 s
90 | COc1ccc(NC(=O)N2CCc3c(c(=O)c4cc(C)cc(C)c4n3C)C2)cc1OC | 628 s
91 | CCN1C(=O)COc2ccc(-c3nc(NC(=O)c4ccccc4)sc3C)cc21 | 1030 s
